Test results as given in patent US10143638B2, “Method of treating skin with ingenol mebutate” (LEO Laboratories Limited, priority 2009, dated 2018).

Assays:
HAS1 = HAS1 gene expression by dermal fibroblasts (qPCR); format: cell-based, human
Source text: (§1) A normal adult skin biopsy (6 mm) was obtained (n=1), with informed consent, from an individual attending the Oral Surgery Clinic, School of Dentistry, Wales College of Medicine, Cardiff. Following the application of a local anaesthetic, the dermal biopsy was collected and adult dermal fibroblast cultures established by single cell suspension technique, following enzymic degradation of the specimen. This technique has previously been reliably used to establish viable primary cultures of both oral and dermal fibroblasts in vitro (Cook et al, 2000; Stephens et al, 2001; 2003). Dermal fibroblasts were cultured in Fibroblast-Serum Containing Medium, containing Dulbecco's Modified Eagle's Medium (DMEM), supplemented with L-glutamine (2 mM), antibiotics (100 U/ml) penicillin G sodium, […] streptomycin sulphate and 0.25 μg/ml amphotericin B) and 10% foetal calf serum (all purchased from Invitrogen Ltd., Paisley, U.K.). Dermal fibroblast cultures were maintained at 37° C., in a 5% CO2/95% air atmosphere, with the culture medium being changed every 2-3 days. Dermal fibroblasts were used between) passage 7-17, for all experiments.
Following trypsinization, dermal fibroblasts were seeded in 24-well tissue culture plates, in PEP005-free, Fibroblast-Serum Containing Medium (1 ml), at a cell density of 2.5×10^4 cell/well. Dermal fibroblasts were maintained at 37° C., in a 5% CO2/95% air atmosphere, overnight. At this stage, the culture medium was replaced with Fibroblast-Serum Containing Medium (600 μl), containing 0 μg/ml, 0.01 μg/ml, 0.1 μg/ml, 1 μg/ml, 10 μg/ml or 100 μg/ml PEP005, +/−TGF-β1 (10 ng/ml) (three culture wells per PEP005 concentration). A control was also established, consisting of cells in Fibroblast-Serum Containing Medium, containing 1% DMSO. The dermal fibroblasts were maintained at 37° C., in a 5% CO2/95% air atmosphere, for 24 h or 72 h, prior to washing in PBS (3×1 ml) and Trizol® Reagent (250 μl) added to the cells, for 5 min at room temperature, to induce cell lysis. RNA was extracted by the phenol-chloroform method, as described above, while a cDNA library was generated via random hexamer RT, as described above. RNA (1 μg) was added to 100 µM random hexamer (1 μl), 5×RT Buffer (4 μl), 2.5 mM Deoxynucleoside Triphosphates (dNTPs, 5 μl), 2 μl DTT and Nuclease-Free Water, were added to the reaction (total volume, 20 μl). To denature the RNA, reaction tubes were placed in a GeneAmp PCR System 9700 (Applied Biosystems, Cheshire, U.K.) and heated for 5 min/95° C., prior to cooling to 4° C. Superscript (1 μl) and RNAsin® Ribonuclease Inhibitor (1 μl, Promega, Hampshire, U.K.) were added to each tube, and the tubes subjected to […] at 20° C. for 10 min, 42° C. for 1 h and 95° C. for 5 min, prior to storage at 4° C., until required. As a negative control, RT was also performed, with Nuclease-Free Water replacing the RNA sample.
qPCR was performed, as described above, with the probe and primers for HAS1, HAS2 and HAS3 (target genes) and the 18s ribosomal RNA (reference gene), designed and supplied by Applied Biosystems. PCR was performed in a final volume of 20 μl/sample, with each reaction mix consisting of cDNA (1 μl), target gene primers and probe (1 μl), Taqman® FAST Universal PCR Master Mix (10 μl, Applied Biosystems), and Nuclease-Free Water (8 μl). PCR amplification was performed, using an initial cycle of 95° C. for 1 s, followed by 40 cycles of 60° C. for 20 s. A cDNA-free control was also included. Again, the comparative CT method was used for relative quantification of gene expression. Each experiment was performed on three separate occasions.

dermal fibroblasts = experiment: Hyaluronan pericellular coat formation by dermal fibroblasts (particle exclusion assay); format: cell-based, human
Source text: as §1
Following trypsinization, dermal fibroblasts were seeded in 53 mm bacteriological grade culture dishes (VWR International Ltd., Leicestershire, U.K.), in PEP005-free, Fibroblast-Serum Containing Medium (2 ml), at a density of 7×10^4 cell/dish. Dermal fibroblasts were maintained at 37° C., in a 5% CO2/95% air atmosphere, overnight, prior to washing in PBS (2×2 ml) and maintenance in serum-free, Fibroblast-Serum Containing Medium (2 ml), containing 0 μg/ml, 0.01 μg/ml, 0.1 μg/ml, 1 μg/ml, 10 μg/ml or 100 μg/ml PEP005, +/−TGF-β1 (10 ng/ml) (three culture dishes per PEP005 concentration). A control was also established, consisting of cells in serum-free, Fibroblast-Serum Containing Medium, containing 1% DMSO. The dermal fibroblasts were maintained at 37° C., in a 5% CO2/95% air atmosphere, for 24 h or 72 h. At 24 h and 72 h, the culture dishes were treated with formalized horse blood erythrocytes (TCS Biosciences Ltd., Buckinghamshire, U.K.). The formalized horse blood erythrocytes were washed in PBS, to remove sodium azide (3×20 ml) and centrifuged at 100 g/7 min, at 4° C. The erythrocyte cell pellet obtained was re-suspended in serum-free, Fibroblast-Serum Containing Medium, to a density of 1×10^8 cells/ml. Aliquots of the erythrocyte cell suspension (500 μl) were supplemented to each culture dish and the dishes agitated, prior to maintenance at 37° C., in a 5% CO2/95% air atmosphere, for 15 min. Zones of erythrocyte exclusion were visualized by light microscopy, using a Zeiss Axiovery 135 Inverted Microscope (Carl Zeiss Ltd., Hertfordshire, U.K.), with a Hamamatsun C5985 chilled CCD camera (Hamamatsu Photonics U.K. Ltd., Hertfordshire, U.K.) and using Openlab Software 3.0.8 (Improvision Ltd., Warwickshire, U.K.). Each experiment was performed on three separate occasions.

`C/C=C(/C)C(=O)O[C@H]1C(C)=C[C@]23C(=O)[C@@H](C=C(CO)[C@@H](O)[C@]12O)[C@H]1[C@@H](C[C@H]3C)C1(C)C` [PEP005, ingenol-3-angelate] was tested, and the HAS1 expression (HAS1; PEP005 0.01-100 μg/ml plus TGF-β1 (10 ng/ml), 24 h, p<0.05 at 0.01 μg/ml, p<0.01 at 100 μg/ml) was “general down-regulation”, the HAS1 expression (HAS1; PEP005 0.01-100 μg/ml plus TGF-β1 (10 ng/ml), 72 h, non-significant (p>0.05)) was “general down-regulation” and the HAS1 expression (HAS1; PEP005, absence of TGF-β1, 24 h) was “no obvious effects”. For the same compound, the HAS1 expression (HAS1; PEP005, absence of TGF-β1, 72 h) was “no obvious effects”, the “changes in cellular morphology” value (dermal fibroblasts; PEP005 0.01-10 μg/ml plus TGF-β1 (10 ng/ml), 72 h) was “consistent with the presence of myofibroblasts” and the “hyaluronan pericellular coat formation” value (dermal fibroblasts; PEP005 0.01-10 μg/ml plus TGF-β1 (10 ng/ml), 72 h, compared to PEP005-free controls) was “even further enhanced”. For the same compound, the “morphological changes in fibroblasts” value (dermal fibroblasts; PEP005 0.01-10 μg/ml, absence of TGF-β1, 72 h) was “consistent with the presence of myofibroblasts”, the “hyaluronan pericellular coat size” value (dermal fibroblasts; PEP005 0.01-10 μg/ml, absence of TGF-β1, 72 h, compared to PEP005-free controls) was “increase pericellular coat size” and the “hyaluronan pericellular coat formation” value (dermal fibroblasts; PEP005-treated cultures, absence of TGF-β1, 24 h) was “little pericellular coat formation”. The “hyaluronan pericellular coat formation” value (dermal fibroblasts; PEP005 plus TGF-β1 (10 ng/ml), 24 h, compared to untreated controls and to PEP005 without TGF-β1) was “major synergistic effect”.
